{
  "source": "patent US20230107770A1",
  "about": "“METHOD OF ENHANCING IMMUNOTHERAPY USING ER STRESS PATHWAY INHIBITORS” (H. LEE MOFFITT CANCER CENTER AND RESEARCH INSTITUTE, INC., priority 2020, published 2023)",
  "key": {"CD8+ TILs": {"tested_on": "CD8+ TILs", "assay": "Flow cytometry of tumor-infiltrating CD8+ T cells from treated mice", "format": "in vivo", "protocol": "All analysis was performed using FlowJo version 11 software."}, "B16 tumors": {"tested_on": "B16 tumors", "assay": "s.c. B16 melanoma tumor model in mice", "format": "in vivo"}, "murine BM-MDSC": {"tested_on": "murine BM-MDSC", "assay": "In vitro suppression assay with murine BM-MDSC", "format": "cell-based, mouse", "protocol": "Mouse BM-MDSC were generated after culturing BM precursors with GM-CSF and G-CSF (20 ng/ml each) for 4 days. In vitro generated MDSC were treated with either LLC tumor explant supernatants (TES, since day 0) or Thaps (200 nM, for the last 24 hours of culture). Human BM-MDSC were developed after culturing BM or peripheral blood precursors from healthy donors with GM-CSF and IL-6 (10 ng/ml each) for a period of 6 days (Thevenot et al., 2014). To induce UPR activation, MDSC were treated with either supernatants from renal cell carcinoma cells 786-0 (hTES) for 6 days (Rodriguez et al., 2009) or Thaps during the last 24 hours before collection (200 nM). In some experiments, MDSC were pre-incubated for 3 hours with Resveratrol (100 μM, Sigma-Aldrich), D,L-Sulphoraphane (20 μM), AMG-44 (5 μM), or TUDCA (500 nM) before treating with Thaps.\nMurine BM-MDSC (ratio 1:1/8) or tumor-MDSC (ratio 1:1/4) were co-cultured with negatively selected CD3^+ T cells in a 96 well plate bound α-CD3 and α-CD28 (1 μg/ml each, eBioscience) for 3 days. T cell proliferation was assessed with Carboxyfluorescein succinimidyl ester (CFSE) or Cell-trace violet (Invitrogen) dye dilution detected by flow cytometry. For human studies, MDSC were co-cultured with enriched CD3^+ T cells activated with soluble α-CD3 (1 μg/ml, clone OKT3) and α-CD28 (0.5 μg/ml, clone L293) for 3 days in a 96 well plate bound with goat anti-mouse IgG (10 μg/ml). Results are expressed as percentage of proliferating T cells, determined by the dilution of fluorescence compared with non-stimulated T cells."}},
  "data": [
    {"smiles": "Cc1ccc2cc(-c3c(C)ccc(C(=O)c4c(-c5ccccc5)n(C)n(-c5ccccc5)c4=O)c3N)ccc2n1", "note": "[AMG-44]", "values": [
      {"measurement": "tumor-infiltrating CD8+ T cells expressing IFNγ", "setting": "CD8+ TILs; B16-bearing mice, AMG-44 12 mg/kg", "value": "induced expansion"},
      {"measurement": "frequency of IFNγ-producing CD8+ T cells in tumors", "setting": "CD8+ TILs; B16, GSK2606414 25 mg/kg or AMG-44 12 mg/kg, 17 days post-tumor injection", "value": "amplified the frequency of IFNγ-producing CD8^+ T cells in tumors"},
      {"measurement": "combination with anti-PD-L1 immunotherapy", "setting": "B16 tumors; B16-bearing mice, AMG-44 12 mg/kg plus 250 μg anti-PD-L1 every 3rd day", "value": "synergized with anti-PD-L1 immunotherapy"},
      {"measurement": "therapeutic anti-tumor action in Eif2ak3^KO-Lyz2 mice", "setting": "B16 tumors; B16, AMG-44 12 mg/kg", "value": "not in Eif2ak3^KO-Lyz2 counterparts"},
      {"measurement": "therapeutic anti-tumor action in PERK-competent mice", "setting": "B16 tumors; B16, AMG-44 12 mg/kg, Eif2ak3^Flox mice", "value": "detected in PERK-competent mice"},
      {"measurement": "tumor growth", "setting": "B16 tumors; B16, daily i.p. GSK2606414 25 mg/kg or AMG-44 12 mg/kg from day 7", "value": "delayed tumor growth"},
      {"measurement": "ability of Thaps-treated BM-MDSC to impair T cell proliferation", "setting": "murine BM-MDSC; BM-MDSC (1:1/8) exposed 3 hours to 5 μM AMG-44", "value": "overcame the ability of Thaps-treated BM-MDSC to impair T cell proliferation"},
      {"measurement": "MDSC-baseline activity", "setting": "murine BM-MDSC; control BM-MDSC exposed 3 hours to 5 μM AMG-44", "value": "without affecting MDSC-baseline activity"}
    ]}
  ]
}
